Reference: US20240308968A1, “FUNGICIDAL SUBSTITUTED HETEROCYCLES” (FMC Corporation, priority 2021, published 2024)

Legend:
Assay type in all cases: in vivo
Zymoseptoria tritici = assay: Test A: preventive spray on wheat seedlings, wheat leaf blotch disease rating; details: 100 = 100% disease control, 0 = no control; for pest or weed control at 50 ppm / pest or weed control at 250 ppm: Zymoseptoria tritici, 456 h
Description: (§1) General protocol for preparing test suspensions for Tests A-F: the test compounds were first dissolved in acetone in an amount equal to 3% of the final volume and then suspended at the desired concentration (in ppm) in acetone and purified water (50/50 mix by volume) containing 50 to 250 ppm of the surfactant PEG400 (polyhydric alcohol esters). The resulting test suspensions were then used in Tests A-F.
The test solution was sprayed to the point of run-off on wheat seedlings. The following day the seedlings were inoculated with a spore suspension of Zymoseptoria tritici (the causal agent of wheat leaf blotch) and incubated in a saturated atmosphere at 24° C. for 48 h, and then moved to a growth chamber at 20° C. for 17 days, after which time disease ratings were made. […]

[1] = system: Puccinia recondita f. sp. Tritici; assay: Test B: preventive spray on wheat seedlings, wheat leaf rust disease rating; details: 100 = 100% disease control, 0 = no control; for pest or weed control at 50 ppm / pest or weed control at 250 ppm: Puccinia recondita, 192 h
Description: as §1
The test solution was sprayed to the point of run-off on wheat seedlings. The following day the seedlings were inoculated with a spore suspension of Puccinia recondita f. sp. Tritici (the causal agent of wheat leaf rust) and incubated in a saturated atmosphere at 20° C. for 24 h, and then moved to a growth chamber at 20° C. for 7 days, after which time disease ratings were made.
(§2) The test suspension was sprayed to the point of run-off on tomato seedlings. The following day the seedlings were inoculated with a spore suspension of Alternaria solani (the causal agent of tomato early blight) and incubated in a saturated atmosphere at 27° C. for 48 h, and then moved to a growth chamber at 20° C. for 3 days, after which time visual disease ratings were made. A rating of 100 indicates 100% disease control and a rating of 0 indicates no disease control (relative to the controls). A dash (-) indicates the compound was not tested.

[2] = system: Blumeria graminis f. sp. Tritici; assay: Test C: preventive spray on wheat seedlings, wheat powdery mildew disease rating; details: 100 = 100% disease control, 0 = no control; for pest or weed control at 50 ppm / pest or weed control at 250 ppm: Blumeria graminis, 192 h
Description: as §1
The test suspension was sprayed to the point of run-off on wheat seedlings. The following day the seedlings were inoculated with a spore dust of Blumeria graminis f. sp. Tritici, (also known as Erysiphe graminis f. sp. Tritici, the causal agent of wheat powdery mildew) and incubated in a growth chamber at 20° C. for 8 days, after which time visual disease ratings were made.
as §2

Phakopsora pachyrhizi = assay: Test D: preventive spray on soybean seedlings, Asian soybean rust disease rating; details: 100 = 100% disease control, 0 = no control; for pest or weed control at 50 ppm / pest or weed control at 250 ppm: Phakopsora pachyrhizi, 216 h
Description: as §1
The test solution was sprayed to the point of run-off on soybean seedlings. The following day the seedlings were inoculated with a spore suspension of Phakopsora pachyrhizi (the causal agent of Asian soybean rust) and incubated in a saturated atmosphere at 22° C. for 24 h and then moved to a growth chamber at 22° C. for 8 days, after which time visual disease ratings were made.
as §2

Botrytis cinerea = assay: Test E: preventive spray on tomato seedlings, tomato Botrytis disease rating; details: 100 = 100% disease control, 0 = no control; for pest or weed control at 50 ppm / pest or weed control at 250 ppm: Botrytis cinerea, 120 h
Description: as §1
The test suspension was sprayed to the point of run-off on tomato seedlings. The following day the seedlings were inoculated with a spore suspension of Botrytis cinerea (the causal agent of tomato Botrytis) and incubated in a saturated atmosphere at 20° C. for 48 h, and then moved to a growth chamber at 24° C. for 3 days, after which time visual disease ratings were made.
as §2

Alternaria solani = assay: Test F: preventive spray on tomato seedlings, tomato early blight disease rating; details: 100 = 100% disease control, 0 = no control; for pest or weed control at 50 ppm / pest or weed control at 250 ppm: Alternaria solani, 120 h
Description: as §1, §2

SMILES	pest or weed control at 50 ppm (Zymoseptoria tritici; 50 ppm) [%]	pest or weed control at 50 ppm ([1]; 50 ppm) [%]	pest or weed control at 50 ppm ([2]; 50 ppm) [%]	pest or weed control at 50 ppm (Phakopsora pachyrhizi; 50 ppm) [%]	pest or weed control at 50 ppm (Botrytis cinerea; 50 ppm) [%]	pest or weed control at 50 ppm (Alternaria solani; 50 ppm) [%]	other results
COc1cc(OC)cc(-n2nc(CO)c(=O)c(C)c2-c2ccc(F)cc2F)c1 [Compound 23, 6-(2,4-difluorophenyl)-1-(3,5-dimethoxyphenyl)-3-(hydroxymethyl)-5-methyl-4(1H)-pyridazinone]	3	68	0	43	46	53	
COC(=O)c1nn(-c2cc(OC)cc(OC)c2)c(-c2ccc(F)cc2F)c(C)c1=O [Compound 24]							Test A disease control rating (Zymoseptoria tritici; 50 ppm): 8%; Test B disease control rating ([1]; 50 ppm): 0%; Test C disease control rating ([2]; 50 ppm): 0%; Test D disease control rating (Phakopsora pachyrhizi; 50 ppm): 0%; Test E disease control rating (Botrytis cinerea; 50 ppm): 0%; Test F disease control rating (Alternaria solani; 50 ppm): 0%
COc1cc(OC)cc(-n2nc(CCl)c(=O)c(C)c2-c2ccc(F)cc2F)c1 [Compound 25]							Test A disease control rating (Zymoseptoria tritici; 50 ppm): 18%; Test B disease control rating ([1]; 50 ppm): 0%; Test C disease control rating ([2]; 50 ppm): 43%; Test D disease control rating (Phakopsora pachyrhizi; 50 ppm): 75%; Test E disease control rating (Botrytis cinerea; 50 ppm): 34%; Test F disease control rating (Alternaria solani; 50 ppm): 0%
COc1cc(OC)cc(-n2nc(CF)c(=O)c(C)c2-c2ccc(F)cc2F)c1 [Compound 26]							Test A disease control rating (Zymoseptoria tritici; 50 ppm): 100%; Test B disease control rating ([1]; 50 ppm): 100%; Test C disease control rating ([2]; 50 ppm): 98%; Test D disease control rating (Phakopsora pachyrhizi; 50 ppm): 99%; Test E disease control rating (Botrytis cinerea; 50 ppm): 98%; Test F disease control rating (Alternaria solani; 50 ppm): 99%
CCOC(=O)c1nn(-c2cc(OC)cc(OC)c2)c(-c2ccc(F)cc2F)c(C)c1=O [Compound 28, ethyl 6-(2,4-difluorophenyl)-1-(3,5-dimethoxyphenyl)-1,4-dihydro-5-methyl-4-oxo-3-pyridazinecarboxylate]							pest or weed control at 250 ppm (Zymoseptoria tritici; 250 ppm): 0%; pest or weed control at 250 ppm ([1]; 250 ppm): 83%; pest or weed control at 250 ppm ([2]; 250 ppm): 43%; pest or weed control at 250 ppm (Phakopsora pachyrhizi; 250 ppm): 0%; pest or weed control at 250 ppm (Botrytis cinerea; 250 ppm): 31%; pest or weed control at 250 ppm (Alternaria solani; 250 ppm): 0%
COc1cc(OC)c(Cl)c(-n2nc(CO)c(=O)c(C)c2-c2ccc(F)cc2F)c1 [Compound 30, 1-(2-chloro-3,5-dimethoxyphenyl)-6-(2,4-difluorophenyl)-3-(hydroxymethyl)-5-methyl-4(1H)-pyridazinone]	63	100	98	92	94	99	
COc1cc(OC)cc(-n2nc(CC#N)c(=O)c(C)c2-c2ccc(F)cc2F)c1 [Compound 31]							Test A disease control rating (Zymoseptoria tritici; 50 ppm): 61%; Test B disease control rating ([1]; 50 ppm): 0%; Test C disease control rating ([2]; 50 ppm): 0%; Test D disease control rating (Phakopsora pachyrhizi; 50 ppm): 0%; Test E disease control rating (Botrytis cinerea; 50 ppm): 9%; Test F disease control rating (Alternaria solani; 50 ppm): 0%
COc1cc(-n2nc(CO)c(=O)c(C)c2-c2ccc(F)cc2F)cc(OC)c1Cl [Compound 32, 1-(4-chloro-3,5-dimethoxyphenyl)-6-(2,4-difluorophenyl)-3-(hydroxymethyl)-5-methyl-4(1H)-pyridazinone]	0	0	0	25	0	0	
COc1cc(OC)c(Cl)c(-n2nc(C)c(=O)c(C)c2-c2ccc(F)cc2F)c1 [Compound 33, 1-(2-chloro-3,5-dimethoxyphenyl)-6-(2,4-difluorophenyl)-3,5-dimethyl-4(1H)-pyridazinone]	100	100	100	100	98	94	
COc1cc(OC)cc(-n2c(-c3ccc(F)cc3Cl)cc(=O)n(C)c2=O)c1 [Compound 34, 6-(2-chloro-4-fluorophenyl)-1-(3,5-dimethoxyphenyl)-3-methyl-2,4(1H,3H)-pyrimidinedione]							pest or weed control at 250 ppm (Zymoseptoria tritici; 250 ppm): 25%; pest or weed control at 250 ppm ([1]; 250 ppm): 86%; pest or weed control at 250 ppm ([2]; 250 ppm): 0%; pest or weed control at 250 ppm (Phakopsora pachyrhizi; 250 ppm): 64%; pest or weed control at 250 ppm (Botrytis cinerea; 250 ppm): 63%; pest or weed control at 250 ppm (Alternaria solani; 250 ppm): 0%
COc1cc(OC)c(Cl)c(-n2c(-c3ccc(F)cc3Cl)c(Cl)c(=O)n(C)c2=O)c1 [Compound 35, 5-chloro-1-(2-chloro-3,5-dimethoxyphenyl)-6-(2-chloro-4-fluorophenyl)-3-methyl-2,4(1H,3H)-pyrimidinedione]	100	100	98	91	94	0	
COc1cc(OC)c(Cl)c(-n2c(-c3ccc(F)cc3Cl)cc(=O)n(C)c2=O)c1 [Compound 36, 1-(2-chloro-3,5-dimethoxyphenyl)-6-(2-chloro-4-fluorophenyl)-3-methyl-2,4(1H,3H)-pyrimidinedione]	95	100	92	89	88	0	
COc1cc(OC)c(Cl)c(-n2c(-c3ccc(F)cc3Cl)c(C)c(=O)n(C)c2=O)c1 [Compound 37, 1-(2-chloro-3,5-dimethoxyphenyl)-6-(2-chloro-4-fluorophenyl)-3,5-dimethyl-2,4(1H,3H)-pyrimidinedione]	100	100	98	77	95	53	
COc1cc(OC)cc(-n2c(-c3ccc(F)cc3Cl)c(Cl)c(=O)n(C)c2=O)c1 [Compound 38, 5-chloro-6-(2-chloro-4-fluorophenyl)-1-(3,5-dimethoxyphenyl)-3-methyl-2,4(1H,3H)-pyrimidinedione]	0	96	0	0	70	0	
COc1cc(OC)cc(-n2c(-c3ccc(F)cc3Cl)c(C)c(=O)n(C)c2=O)c1 [Compound 39, 6-(2-chloro-4-fluorophenyl)-1-(3,5-dimethoxyphenyl)-3,5-dimethyl-2,4(1H,3H)-pyrimidinedione]	0	100	98	73	90	9	
COc1cc(OC)cc(-c2ncncc2-c2c(F)cc(F)cc2F)c1 [Compound 40]							Test A disease control rating (Zymoseptoria tritici; 250 ppm): 0%; Test B disease control rating ([1]; 250 ppm): 9%; Test C disease control rating ([2]; 250 ppm): 69%; Test D disease control rating (Phakopsora pachyrhizi; 250 ppm): 0%; Test E disease control rating (Botrytis cinerea; 250 ppm): 0%; Test F disease control rating (Alternaria solani; 250 ppm): 0%
COc1cc(OC)cc(-c2nc(C)ncc2-c2c(F)cc(F)cc2F)c1 [Compound 41]							Test A disease control rating (Zymoseptoria tritici; 250 ppm): 84%; Test B disease control rating ([1]; 250 ppm): 0%; Test C disease control rating ([2]; 250 ppm): 91%; Test D disease control rating (Phakopsora pachyrhizi; 250 ppm): 0%; Test E disease control rating (Botrytis cinerea; 250 ppm): 17%; Test F disease control rating (Alternaria solani; 250 ppm): 0%
